The text below walks through data of ChEMBL document CHEMBL3526128, “Covalent modification and time-dependent inhibition of human CYP2E1 by the meta-isomer of acetaminophen” (Drug Metab Dispos, 2012).

A value given as a limit tells only on which side of the number the result lay.

Type in all cases: ADME
Data set [1] has as its target T1, CYP2E1 (Homo sapiens, UniProt P05181). Briefly: Inhibition of human CYP2E1 assessed as chlorzoxazone 6-hydroxylase activity at 2.5 mM after 72 hrs preincubation by HPLC analysis (RVb = 100%). The arrangement: scale not given: the % may be the effect or the level left. The following applies: probe chlorzoxazone (6-hydroxylation), read-out: Activity.
In data set [2] the target is T1, CYP2E1. Description: Inhibition of human CYP2E1 assessed as chlorzoxazone 6-hydroxylase activity at 20 mM after 72 hrs preincubation by HPLC analysis in presence of 1 mM NADPH and 5 mM glutathione (RVb = 100%). The arrangement: scale not given: the % may be the effect or the level left. The following applies: probe chlorzoxazone (6-hydroxylation), read-out: Activity.

In data set [3] the target is T2, Cytochrome P450 2E1 (Homo sapiens, UniProt P05181). Description: Inhibition of human CYP2E1-mediated chlorzoxazone hydroxylase activity at 2.5 to 40 mM after 72 hrs by LC-MS/MS analysis in presence of 1 mM NADPH. Particulars: recombinant enzyme, 40000 µM; call rule not given here.
The target in data set [4] is T1, CYP2E1. Description: Inhibition of human CYP2E1 assessed as chlorzoxazone 6-hydroxylase activity at 20 mM after 72 hrs preincubation by HPLC analysis (RVb = 100%). The arrangement: scale not given: the % may be the effect or the level left. The following applies: probe chlorzoxazone (6-hydroxylation), read-out: Activity.
Data set [5] has as its target T1, CYP2E1. Briefly: Inhibition of human CYP2E1 assessed as chlorzoxazone 6-hydroxylase activity at 40 mM after 72 hrs preincubation by HPLC analysis (RVb = 100%). The arrangement: scale not given: the % may be the effect or the level left. The following applies: probe chlorzoxazone (6-hydroxylation), read-out: Activity.
Data set [6] addresses T1, CYP2E1. Description: Inhibition of human CYP2E1 assessed as chlorzoxazone 6-hydroxylase activity at 40 mM after 72 hrs preincubation by HPLC analysis in presence of 1 mM NADPH (RVb = 100%). The arrangement: scale not given: the % may be the effect or the level left. The following applies: probe chlorzoxazone (6-hydroxylation), read-out: Activity.
In data set [7] the target is T2, Cytochrome P450 2E1. Briefly: Inhibition of human CYP2E1-mediated chlorzoxazone hydroxylase activity at 2.5 to 40 mM by LC-MS/MS analysis. The following applies: recombinant enzyme, 40000 µM, TDE = time-dependent effect.
Data set [8] deals with T1, CYP2E1. Description: Inhibition of human CYP2E1 assessed as chlorzoxazone 6-hydroxylase activity at 20 mM after 72 hrs preincubation by HPLC analysis in presence of 1 mM NADPH (RVb = 100%). The arrangement: scale not given: the % may be the effect or the level left. The following applies: probe chlorzoxazone (6-hydroxylation), read-out: Activity.
Data set [9] has as its target T2, Cytochrome P450 2E1. Description: (§1) Inhibition of human CYP2E1 assessed as chlorzoxazone 6-hydroxylase activity by HPLC analysis.
In data set [10] the target is T1, CYP2E1. The description is as §1. The following applies: human, probe chlorzoxazone (6-hydroxylation).

T2 sequence (P05181 whole entry): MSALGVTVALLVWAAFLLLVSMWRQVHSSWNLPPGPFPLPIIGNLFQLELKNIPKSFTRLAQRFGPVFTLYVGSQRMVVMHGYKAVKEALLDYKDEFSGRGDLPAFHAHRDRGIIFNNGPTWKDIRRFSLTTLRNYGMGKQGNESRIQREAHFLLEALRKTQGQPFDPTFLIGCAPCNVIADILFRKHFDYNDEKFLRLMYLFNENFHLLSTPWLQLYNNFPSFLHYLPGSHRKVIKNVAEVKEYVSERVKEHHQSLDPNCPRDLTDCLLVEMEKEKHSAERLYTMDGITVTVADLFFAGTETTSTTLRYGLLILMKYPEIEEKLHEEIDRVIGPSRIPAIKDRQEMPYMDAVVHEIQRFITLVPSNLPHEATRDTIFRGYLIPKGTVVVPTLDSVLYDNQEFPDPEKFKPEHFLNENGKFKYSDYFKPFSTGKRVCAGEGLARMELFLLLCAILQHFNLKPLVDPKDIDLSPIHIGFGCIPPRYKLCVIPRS
T1 sequence (P05181 whole entry): as above

On to `Nn1nnc2ccccc21`, for which, on CYP2E1 [1], the activity at 72 h, 2500 µM was < 1%.
Consider `CC(=O)Nc1cccc(O)c1` [METACETAMOL], for which the activity at 72 h, 20000 µM is 91.3% on CYP2E1 [2], 89.3% at CYP2E1 [4] and 64.8% at CYP2E1 [8]. The entries for the “inhibition (INH)” value at Cytochrome P450 2E1 [3] and on Cytochrome P450 2E1 [7] were “Active” and “tde”, respectively. The activity at 72 h, 2500 µM on CYP2E1 [1] was 97.6%. Further, the activity at 72 h, 40000 µM is 65.7% on CYP2E1 [5] and 43.7% at CYP2E1 [6]. Further, the Ki on Cytochrome P450 2E1 [9] came out at 9.5 mM. Further, at CYP2E1 [10], the kinact was 0.000133 s⁻¹.
